According to patent publication US20240043429A1, “TRIAZOLO PYRAZINE COMPOUND AND USE THEREOF” (TECHNODERMA MEDICINES, INC., priority 2020, published 2024):

Legend:
Format in all cases: biochemical
JAK2 = JAK2 (Homo sapiens, UniProt O60674); assay: Enzyme activity inhibition of JAK kinases (ULight-JAK substrate, Eu-antibody): JAK2; conditions: JAK2 1 nM, ATP 10 μM, 1 hour reaction at room temperature; read-out: JAK2 half-maximum inhibitory concentration
Protocol: (§1) 1× test buffer: The test buffer was prepared, and diluted with deionized water (deionized water: test buffer=9:1) to obtain the 1×test buffer. 4× kinase solution: JAK kinase was diluted 4-fold with the kinase reaction buffer to a final concentration (JAK1: 80 nM, JAK2/JAK3/Tyk2: 4 nM). 4×substrate solution: ULight™-JAK (Tyr1023) substrate was diluted with the kinase reaction buffer to 200 nM (final concentration: 50 nM). 4× ATP solution: ATP was diluted 4-fold with the kinase reaction buffer to a final concentration (JAK1: 160 μM, JAK2/JAK3/Tyk2: 40 μM). 4× test compound solution: The test compound was dissolved with DMSO to prepare 10 mM stock solutions, and diluted 3-fold serially to required concentrations, 10 concentrations were set for each compound, and final concentrations of the test compound ranged from 10 μM to 0.5 nM. 4× enzyme reaction stop solution: 1× test buffer was used dissolve EDTA to 40 mM (final concentration of EDTA: 10 mM). 4× test antibody solution: Eu-labeled test antibody (anti-phosphotyrosine (PT66)) was diluted with 1× test buffer to 8 nM (final concentration of antibody: 2 nM). […] After incubation of the antibody, a signal value of each well was measured via Envision plate reader. […]

Tyk2 = Tyk2 (Homo sapiens, UniProt P29597); assay: Enzyme activity inhibition of JAK kinases (ULight-JAK substrate, Eu-antibody): Tyk2; conditions: ATP 10 μM, 1 hour reaction at room temperature; read-out: Tyk2 half-maximum inhibitory concentration
Chain of Tyk2 (P29597 whole entry): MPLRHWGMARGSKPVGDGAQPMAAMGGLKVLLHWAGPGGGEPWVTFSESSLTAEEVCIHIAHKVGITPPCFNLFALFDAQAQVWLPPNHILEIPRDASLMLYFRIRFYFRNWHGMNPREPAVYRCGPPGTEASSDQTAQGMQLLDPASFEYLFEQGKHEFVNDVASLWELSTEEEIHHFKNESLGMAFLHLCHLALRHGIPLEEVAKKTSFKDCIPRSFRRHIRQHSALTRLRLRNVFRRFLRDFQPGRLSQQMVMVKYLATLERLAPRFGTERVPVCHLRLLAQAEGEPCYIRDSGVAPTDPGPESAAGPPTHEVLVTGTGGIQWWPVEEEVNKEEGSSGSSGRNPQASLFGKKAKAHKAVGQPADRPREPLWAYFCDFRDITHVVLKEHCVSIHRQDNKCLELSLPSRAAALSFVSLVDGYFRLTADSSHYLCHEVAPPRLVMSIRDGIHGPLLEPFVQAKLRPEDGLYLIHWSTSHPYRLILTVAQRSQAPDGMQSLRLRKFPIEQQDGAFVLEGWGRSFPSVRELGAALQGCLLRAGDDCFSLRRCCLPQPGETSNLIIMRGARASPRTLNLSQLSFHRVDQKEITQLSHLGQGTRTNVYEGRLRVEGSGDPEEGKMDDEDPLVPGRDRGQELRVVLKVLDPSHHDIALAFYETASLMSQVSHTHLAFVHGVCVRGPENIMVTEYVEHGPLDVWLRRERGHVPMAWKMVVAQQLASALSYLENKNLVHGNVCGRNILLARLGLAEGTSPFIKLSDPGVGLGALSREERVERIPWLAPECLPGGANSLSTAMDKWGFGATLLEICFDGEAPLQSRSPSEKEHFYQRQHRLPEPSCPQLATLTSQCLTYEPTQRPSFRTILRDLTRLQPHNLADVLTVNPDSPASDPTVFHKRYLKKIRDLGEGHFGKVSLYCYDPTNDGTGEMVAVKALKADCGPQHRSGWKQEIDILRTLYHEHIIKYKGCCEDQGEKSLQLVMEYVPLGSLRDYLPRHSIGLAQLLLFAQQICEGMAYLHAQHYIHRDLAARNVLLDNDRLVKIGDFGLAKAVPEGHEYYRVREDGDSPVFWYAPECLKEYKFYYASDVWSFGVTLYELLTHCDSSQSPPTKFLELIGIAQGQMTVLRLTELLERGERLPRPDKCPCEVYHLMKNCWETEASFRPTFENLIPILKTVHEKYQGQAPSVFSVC
Protocol: as §1

JAK1 = JAK1 (Homo sapiens, UniProt P23458); assay: Enzyme activity inhibition of JAK kinases (ULight-JAK substrate, Eu-antibody): JAK1; conditions: JAK1 20 nM, ATP 40 μM, 2 hours reaction at room temperature; read-out: JAK1 half-maximum inhibitory concentration
Chain of JAK1 (P23458 whole entry): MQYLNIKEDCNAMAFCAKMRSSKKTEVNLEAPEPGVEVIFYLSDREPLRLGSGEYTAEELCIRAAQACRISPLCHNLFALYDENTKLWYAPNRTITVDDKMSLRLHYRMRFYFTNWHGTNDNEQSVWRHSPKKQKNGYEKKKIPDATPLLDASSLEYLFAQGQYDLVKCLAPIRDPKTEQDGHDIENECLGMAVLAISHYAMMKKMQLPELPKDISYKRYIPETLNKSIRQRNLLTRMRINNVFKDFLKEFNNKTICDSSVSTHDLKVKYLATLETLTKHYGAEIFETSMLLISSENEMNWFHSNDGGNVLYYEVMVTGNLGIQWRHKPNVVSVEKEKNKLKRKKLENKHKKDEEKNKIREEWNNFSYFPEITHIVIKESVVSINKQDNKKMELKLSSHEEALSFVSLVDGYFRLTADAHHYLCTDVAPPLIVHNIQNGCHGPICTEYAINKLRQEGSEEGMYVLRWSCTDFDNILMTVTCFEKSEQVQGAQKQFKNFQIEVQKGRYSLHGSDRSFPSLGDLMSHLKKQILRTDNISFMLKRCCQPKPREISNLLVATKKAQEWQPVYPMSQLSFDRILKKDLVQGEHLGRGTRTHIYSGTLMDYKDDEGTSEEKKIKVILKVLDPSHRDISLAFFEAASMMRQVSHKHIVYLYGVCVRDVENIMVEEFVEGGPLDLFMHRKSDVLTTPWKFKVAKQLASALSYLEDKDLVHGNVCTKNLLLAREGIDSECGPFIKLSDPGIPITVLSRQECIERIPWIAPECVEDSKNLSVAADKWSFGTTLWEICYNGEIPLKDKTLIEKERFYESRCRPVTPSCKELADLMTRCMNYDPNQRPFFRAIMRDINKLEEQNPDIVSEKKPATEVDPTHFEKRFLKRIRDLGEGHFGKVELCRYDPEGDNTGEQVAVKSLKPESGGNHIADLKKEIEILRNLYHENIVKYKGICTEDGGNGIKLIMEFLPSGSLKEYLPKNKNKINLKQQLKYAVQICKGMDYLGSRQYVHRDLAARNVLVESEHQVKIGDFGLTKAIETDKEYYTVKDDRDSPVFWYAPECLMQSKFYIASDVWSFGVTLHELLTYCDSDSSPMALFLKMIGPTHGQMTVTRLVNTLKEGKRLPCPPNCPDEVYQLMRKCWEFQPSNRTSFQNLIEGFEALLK
Protocol: as §1

Chain of JAK2 (O60674 whole entry): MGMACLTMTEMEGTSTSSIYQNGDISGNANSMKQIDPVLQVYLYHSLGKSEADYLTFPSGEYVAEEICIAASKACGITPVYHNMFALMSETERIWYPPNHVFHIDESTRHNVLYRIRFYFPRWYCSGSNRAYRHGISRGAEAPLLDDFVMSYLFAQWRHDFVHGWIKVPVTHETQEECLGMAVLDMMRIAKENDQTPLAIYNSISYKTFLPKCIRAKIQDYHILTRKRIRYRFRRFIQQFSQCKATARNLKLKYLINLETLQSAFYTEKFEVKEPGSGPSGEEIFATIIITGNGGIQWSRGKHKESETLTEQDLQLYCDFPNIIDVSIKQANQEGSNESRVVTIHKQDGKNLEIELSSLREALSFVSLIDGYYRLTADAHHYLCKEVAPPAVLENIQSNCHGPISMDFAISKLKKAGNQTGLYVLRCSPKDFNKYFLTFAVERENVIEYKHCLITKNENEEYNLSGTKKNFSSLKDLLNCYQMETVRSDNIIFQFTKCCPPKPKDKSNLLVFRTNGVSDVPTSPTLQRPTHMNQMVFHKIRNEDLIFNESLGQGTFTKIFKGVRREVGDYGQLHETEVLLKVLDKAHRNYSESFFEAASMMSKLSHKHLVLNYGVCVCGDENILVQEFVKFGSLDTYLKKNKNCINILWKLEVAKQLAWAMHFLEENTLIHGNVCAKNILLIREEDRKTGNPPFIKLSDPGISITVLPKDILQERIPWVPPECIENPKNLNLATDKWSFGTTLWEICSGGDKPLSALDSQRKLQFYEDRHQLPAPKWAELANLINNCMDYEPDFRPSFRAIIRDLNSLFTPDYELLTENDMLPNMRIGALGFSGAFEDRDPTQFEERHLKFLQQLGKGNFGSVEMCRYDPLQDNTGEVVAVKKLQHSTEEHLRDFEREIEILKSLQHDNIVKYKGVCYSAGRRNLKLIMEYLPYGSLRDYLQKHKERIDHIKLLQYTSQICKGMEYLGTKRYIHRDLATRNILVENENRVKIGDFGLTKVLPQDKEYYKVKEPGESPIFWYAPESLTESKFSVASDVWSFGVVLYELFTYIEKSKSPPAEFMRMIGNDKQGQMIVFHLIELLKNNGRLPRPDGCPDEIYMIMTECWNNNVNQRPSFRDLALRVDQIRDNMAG

| Structure (SMILES) | IC50 (JAK2) [nM] | IC50 (Tyk2) [nM] | IC50 (JAK1) [nM] |
| --- | --- | --- | --- |
| Cn1cc(-c2cn3ncnc3c(-c3ccn([C@]4(CC#N)C[C@@H](C#N)C4)c3)n2)cn1 [TDM-181020, (1r,3r)-3-(cyanomethyl)-3-(3-(6-(1-methyl-1H-pyrazol-4-yl)-[1,2,4]triazolo[1,5-a]pyrazin-8-yl)-1H-pyrrol-1-yl)cyclobutane-1-carbonitrile] | 2420 | 111 |  |
| Cn1cc(-c2cn3ncnc3c(-c3ccn([C@]4(CC#N)C[C@H](C#N)C4)c3)n2)cn1 [TDM-181021, (1s,3s)-3-(Cyanomethyl)-3-(3-(6-(1-Methyl-1H-Pyrazol-4-Yl)-[1,2,4]Triazolo[1,5-a]Pyrazin-8-Yl)-1H-Pyrrol-1-Yl)Cyclobutane-1-Carbonitrile] | 138 | 14 | 1210 |
